Data published in PubChem BioAssay (NCI).
Where “and” joins values, the source holds several entries; their conditions need not be identical. Equal values may be shown once.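 96-well plates; 48 h exposure; 5 concentrations. Endpoints by linear interpolation between flanking doses. Not reached: highest tested concentration assigned. The concentration for 50% growth inhibition is given as GI50. Definition used: TGI = concentration required for complete inhibition of growth.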

Columns and labels:
Experiment in all cases: NCI-60 cell line screen, 48 h
NCI-H522 lung = system: NCI-H522 lung
DMS 273 small cell lung = system: DMS 273 small cell lung
U251 CNS = system: U251 CNS
M14 melanoma = system: M14 melanoma
HCT-15 colon = system: HCT-15 colon
SK-MEL-2 melanoma = system: SK-MEL-2 melanoma
DLD-1 colon = system: DLD-1 colon
OVCAR-3 ovarian = system: OVCAR-3 ovarian
XF 498 CNS = system: XF 498 CNS
OVCAR-8 ovarian = system: OVCAR-8 ovarian
MOLT-4 leukemia = system: MOLT-4 leukemia
HOP-92 NSCLC = system: HOP-92 NSCLC
CAKI-1 renal = system: CAKI-1 renal
TK-10 renal = system: TK-10 renal
SW-620 colon = system: SW-620 colon
SF-268 CNS = system: SF-268 CNS
SNB-19 CNS = system: SNB-19 CNS
KM20L2 colon = system: KM20L2 colon
MALME-3M melanoma = system: MALME-3M melanoma
SNB-75 CNS = system: SNB-75 CNS
NCI-H226 lung = system: NCI-H226 lung
LXFL 529 NSCLC = system: LXFL 529 NSCLC
786-0 renal = system: 786-0 renal
UACC-62 melanoma = system: UACC-62 melanoma
SK-MEL-5 melanoma = system: SK-MEL-5 melanoma
K-562 leukemia = system: K-562 leukemia
SF-539 CNS = system: SF-539 CNS
SR leukemia = system: SR leukemia
SK-MEL-28 melanoma = system: SK-MEL-28 melanoma
NCI-H460 lung = system: NCI-H460 lung
HT29 colon = system: HT29 colon
HL-60(TB) leukemia = system: HL-60(TB) leukemia
A549 NSCLC = system: A549 NSCLC
HCC-2998 colon = system: HCC-2998 colon
DMS 114 small cell lung = system: DMS 114 small cell lung
HOP-62 NSCLC = system: HOP-62 NSCLC
UO-31 renal = system: UO-31 renal
CCRF-CEM leukemia = system: CCRF-CEM leukemia
OVCAR-5 ovarian = system: OVCAR-5 ovarian
RPMI-8226 leukemia = system: RPMI-8226 leukemia
ACHN renal = system: ACHN renal
M19-MEL melanoma = system: M19-MEL melanoma
UACC-257 melanoma = system: UACC-257 melanoma
HCT-116 colon = system: HCT-116 colon
IGROV1 ovarian = system: IGROV1 ovarian
COLO 205 colon = system: COLO 205 colon
KM12 colon = system: KM12 colon
NCI-H23 lung = system: NCI-H23 lung
SF-295 CNS = system: SF-295 CNS
OVCAR-4 ovarian = system: OVCAR-4 ovarian
SN12C renal = system: SN12C renal
SNB-78 CNS = system: SNB-78 CNS
EKVX NSCLC = system: EKVX NSCLC
SK-OV-3 ovarian = system: SK-OV-3 ovarian
A498 renal = system: A498 renal
LOX IMVI melanoma = system: LOX IMVI melanoma
RXF 393 renal = system: RXF 393 renal

CC[N+](CC)(CC)Cc1cc2ccccc2n1C(=O)OC
TGI (NCI-H522 lung): > 100 µM | TGI (DMS 273 small cell lung): > 100 µM | TGI (U251 CNS): > 100 µM | TGI (M14 melanoma): > 100 µM | TGI (HCT-15 colon): > 100 µM | TGI (SK-MEL-2 melanoma): > 100 µM | TGI (DLD-1 colon): > 100 µM | TGI (OVCAR-3 ovarian): > 100 µM | TGI (XF 498 CNS): > 100 µM | TGI (OVCAR-8 ovarian): > 100 µM | TGI (MOLT-4 leukemia): > 100 µM | TGI (HOP-92 NSCLC): > 100 µM | TGI (CAKI-1 renal): > 100 µM | TGI (TK-10 renal): > 100 µM | TGI (SW-620 colon): > 100 µM | TGI (SF-268 CNS): > 100 µM | TGI (SNB-19 CNS): > 100 µM | TGI (KM20L2 colon): > 100 µM | TGI (MALME-3M melanoma): > 100 µM | TGI (SNB-75 CNS): > 100 µM | TGI (NCI-H226 lung): > 100 µM | TGI (LXFL 529 NSCLC): > 100 µM | TGI (786-0 renal): > 100 µM | TGI (UACC-62 melanoma): > 100 µM | TGI (SK-MEL-5 melanoma): > 100 µM | TGI (K-562 leukemia): > 100 µM | TGI (SF-539 CNS): > 100 µM | TGI (SR leukemia): > 100 µM | TGI (SK-MEL-28 melanoma): > 100 µM | TGI (NCI-H460 lung): > 100 µM | TGI (HT29 colon): > 100 µM | TGI (HL-60(TB) leukemia): > 100 µM | TGI (A549 NSCLC): > 100 µM | TGI (HCC-2998 colon): > 100 µM | TGI (DMS 114 small cell lung): > 100 µM | TGI (HOP-62 NSCLC): > 100 µM | TGI (UO-31 renal): > 100 µM | TGI (CCRF-CEM leukemia): > 100 µM | TGI (OVCAR-5 ovarian): > 100 µM | TGI (RPMI-8226 leukemia): > 100 µM | TGI (ACHN renal): > 100 µM | TGI (M19-MEL melanoma): > 100 µM | TGI (UACC-257 melanoma): > 100 µM | TGI (HCT-116 colon): > 100 µM | TGI (IGROV1 ovarian): > 100 µM | TGI (COLO 205 colon): > 100 µM | TGI (KM12 colon): > 100 µM | TGI (NCI-H23 lung): > 100 µM | TGI (SF-295 CNS): > 100 µM | TGI (OVCAR-4 ovarian): > 100 µM

CCCCCC(=O)N[C@H]1CCc2cc(OC)c(OC)c(OC)c2-c2ccc(SC)c(=O)cc21
TGI (HCT-15 colon): 0.0646 µM | TGI (DLD-1 colon): > 100 µM | TGI (OVCAR-3 ovarian): 0.0354 µM | TGI (XF 498 CNS): 6.04 µM | TGI (MOLT-4 leukemia): > 100 µM | TGI (HOP-92 NSCLC): 1.17 µM | TGI (CAKI-1 renal): > 100 µM | TGI (TK-10 renal): 32.9 µM | TGI (SW-620 colon): > 100 µM | TGI (SF-268 CNS): 24.1 µM | TGI (KM20L2 colon): 0.0354 µM | TGI (SN12C renal): 19 µM | TGI (LXFL 529 NSCLC): 17.3 µM | TGI (786-0 renal): 11.6 µM | TGI (UACC-62 melanoma): 29.3 µM | TGI (SK-MEL-5 melanoma): 0.0484 µM | TGI (K-562 leukemia): 11.2 µM | TGI (SF-539 CNS): 0.0374 µM | GI50 (SK-MEL-28 melanoma): 25.1 µM | TGI (SK-MEL-28 melanoma): > 100 µM | TGI (HT29 colon): 0.0755 µM and 0.131 µM | TGI (SNB-78 CNS): > 100 µM | TGI (A549 NSCLC): > 100 µM | TGI (HCC-2998 colon): 0.0549 µM | TGI (HOP-62 NSCLC): 49.7 µM | TGI (CCRF-CEM leukemia): 34.8 µM | TGI (EKVX NSCLC): > 100 µM | TGI (OVCAR-5 ovarian): > 100 µM | TGI (ACHN renal): 36 µM | TGI (M19-MEL melanoma): 50.7 µM | TGI (UACC-257 melanoma): 33.4 µM | TGI (HCT-116 colon): 0.0913 µM and 0.0136 µM | TGI (SK-OV-3 ovarian): 0.0811 µM | TGI (COLO 205 colon): 0.0285 µM | TGI (A498 renal): 0.0449 µM | TGI (OVCAR-4 ovarian): > 100 µM

C=CCCCC(C#N)(c1ccccc1)N1CCCC1 (stereo not given)
TGI (NCI-H522 lung): > 100 µM | TGI (DMS 273 small cell lung): > 100 µM | TGI (U251 CNS): > 100 µM | TGI (M14 melanoma): > 100 µM | TGI (HCT-15 colon): > 100 µM | TGI (SK-MEL-2 melanoma): > 100 µM | TGI (OVCAR-3 ovarian): > 100 µM | TGI (OVCAR-8 ovarian): > 100 µM | TGI (MOLT-4 leukemia): > 100 µM | TGI (HOP-92 NSCLC): > 100 µM | TGI (CAKI-1 renal): > 100 µM | TGI (TK-10 renal): > 100 µM | TGI (SW-620 colon): > 100 µM | TGI (SF-268 CNS): > 100 µM | TGI (SNB-19 CNS): > 100 µM | TGI (KM20L2 colon): > 100 µM | TGI (SN12C renal): > 100 µM | TGI (MALME-3M melanoma): > 100 µM | TGI (LOX IMVI melanoma): > 100 µM | TGI (SNB-75 CNS): > 100 µM | TGI (NCI-H226 lung): > 100 µM | TGI (786-0 renal): > 100 µM | TGI (UACC-62 melanoma): > 100 µM | TGI (SK-MEL-5 melanoma): > 100 µM | TGI (K-562 leukemia): > 100 µM | TGI (SF-539 CNS): > 100 µM | TGI (SR leukemia): > 100 µM | TGI (SK-MEL-28 melanoma): > 100 µM | TGI (NCI-H460 lung): > 100 µM | TGI (HT29 colon): > 100 µM | TGI (RXF 393 renal): > 100 µM | TGI (HL-60(TB) leukemia): > 100 µM | TGI (SNB-78 CNS): > 100 µM | TGI (A549 NSCLC): > 100 µM | TGI (HCC-2998 colon): > 100 µM | TGI (DMS 114 small cell lung): > 100 µM | TGI (HOP-62 NSCLC): > 100 µM | TGI (UO-31 renal): > 100 µM | TGI (CCRF-CEM leukemia): > 100 µM | TGI (EKVX NSCLC): > 100 µM | TGI (OVCAR-5 ovarian): > 100 µM | TGI (RPMI-8226 leukemia): > 100 µM | TGI (ACHN renal): > 100 µM | TGI (M19-MEL melanoma): > 100 µM | TGI (UACC-257 melanoma): > 100 µM | TGI (HCT-116 colon): > 100 µM | TGI (SK-OV-3 ovarian): > 100 µM | TGI (IGROV1 ovarian): > 100 µM | TGI (COLO 205 colon): > 100 µM | TGI (KM12 colon): > 100 µM | TGI (NCI-H23 lung): > 100 µM | TGI (A498 renal): > 100 µM | TGI (SF-295 CNS): > 100 µM | TGI (OVCAR-4 ovarian): > 100 µM
